What was measured:
TANK-2 enzyme = target: T1, TANK-2 enzyme (Homo sapiens, UniProt Q9H2K2); experiment: In vitro Scintillation Proximity Assay (SPA) for TANK-2 inhibitory activity; type: biochemical; settings: read-out: in vitro SPA assay TANK-2 pIC50 (converted)
T1 construct: made in house
T1 sequence (Q9H2K2 1-1166): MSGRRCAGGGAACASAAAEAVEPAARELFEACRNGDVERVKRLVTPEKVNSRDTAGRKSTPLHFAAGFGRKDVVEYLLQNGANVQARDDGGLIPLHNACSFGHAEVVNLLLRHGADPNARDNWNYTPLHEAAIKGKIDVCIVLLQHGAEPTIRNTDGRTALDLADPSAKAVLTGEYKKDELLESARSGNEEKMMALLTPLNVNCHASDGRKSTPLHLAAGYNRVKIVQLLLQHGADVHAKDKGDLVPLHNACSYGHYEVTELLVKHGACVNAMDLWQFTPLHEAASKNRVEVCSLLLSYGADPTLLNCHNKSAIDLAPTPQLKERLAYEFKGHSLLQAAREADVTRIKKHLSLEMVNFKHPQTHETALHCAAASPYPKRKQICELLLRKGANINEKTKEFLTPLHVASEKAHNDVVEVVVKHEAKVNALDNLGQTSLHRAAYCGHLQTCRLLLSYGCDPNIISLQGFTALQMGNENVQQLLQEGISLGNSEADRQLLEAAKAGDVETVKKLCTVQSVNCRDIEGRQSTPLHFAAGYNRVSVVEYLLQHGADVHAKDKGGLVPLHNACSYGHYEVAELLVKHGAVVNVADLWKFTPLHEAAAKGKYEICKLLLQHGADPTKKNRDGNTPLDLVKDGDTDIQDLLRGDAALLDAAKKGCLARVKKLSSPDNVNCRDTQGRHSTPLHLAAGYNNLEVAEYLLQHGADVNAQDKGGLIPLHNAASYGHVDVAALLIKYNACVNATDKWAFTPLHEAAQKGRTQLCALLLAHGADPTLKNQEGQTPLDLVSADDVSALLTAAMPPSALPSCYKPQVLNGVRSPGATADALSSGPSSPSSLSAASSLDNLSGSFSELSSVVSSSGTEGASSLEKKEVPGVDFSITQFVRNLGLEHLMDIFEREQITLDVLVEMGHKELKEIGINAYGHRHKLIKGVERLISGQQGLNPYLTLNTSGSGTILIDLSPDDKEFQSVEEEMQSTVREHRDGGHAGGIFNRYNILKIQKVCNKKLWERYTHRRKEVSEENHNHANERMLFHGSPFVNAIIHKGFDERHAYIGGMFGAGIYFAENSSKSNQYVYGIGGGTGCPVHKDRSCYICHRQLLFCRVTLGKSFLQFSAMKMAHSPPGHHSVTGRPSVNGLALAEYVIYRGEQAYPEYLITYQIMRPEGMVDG
Method in brief: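 TANK-2 (8 μg/ml final) auto-poly(ADP-ribosyl)ation with [3H]-NAD+/NAD donor was run in Ni flash plates in Tris/HCl pH 7.4 buffer with DTT and MgCl2, 120 min at room temperature, then stopped with excess NAD and scintillation-counted. Blank-corrected cpm was expressed as % of enzyme control, and IC50 was linearly interpolated and reported as pIC50.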

tubulin = experiment: Tubulin polymerization assay; type: biochemical; parameters: key: a compound showing 0 to 50% inhibition at 20 μM is reported as score 1; Score 2 compounds are defined as compound showing more than 50% inhibition at 20 μM and less than 50% inhibition at 5 μM; a compound showing more than 50% inhibition at 5 μM is reported as score 3; settings: tested at 20 μM and 5 μM
Description: The tubulin polymerization assay is an adaptation of an assay originally described by Bonne, D. et al. (J. Biol. Chem., 1985, 260:2819-25). The assay kit was purchased from Cytoskeleton, Inc. (catalogue number BK011) and the assay was performed as described by the supplier with the following modifications. The assay was run in a 384-well black Proxiplate (Perkin Elmer) and volumes were adapted accordingly. The reactions were carried out in a final volume of 10 μl. Compounds were added to 25 μl of the reaction mix in 96-well PP plates (Corning) on ice and 10 μl of this mixture was dispensed into duplicates of the 384-well Proxiplates pre-warmed to 37° C. in a Fluoroskan Ascent plate reader (Thermo Scientific). Fluorescence measurements were taken every minute for one hour. The maximum slope of each well was determined (linear regression through 4 consecutive points) and polymerization was calculated as a percentage of polymerization observed in the absence of compound. Compounds were first measured at a concentration of 20 μM and then at 5 μM for those showing more than 50% inhibition at 20 μM as compared to the polymerization observed in the absence of compound. Results are reported in Table F-2 as scores defined as: a compound showing 0 to 50% inhibition at 20 μM is reported as score 1; a compound showing more than 50% inhibition at 5 μM is reported as score 3.

| Structure (SMILES) | IC50 (TANK-2 enzyme) [nM] | melting point [°C] | tubulin polymerisation score (tubulin) |
| --- | --- | --- | --- |
| CCc1cc2ccc(C(C)(C#N)CC3COc4ccccc4O3)cc2[nH]c1=O (single isomer, unassigned) [Compound 48] | 200 | 241 |  |
| CCc1cc2ccc([C@@](C)(C#N)CCOc3ccccc3)cc2[nH]c1=O (single isomer, unassigned) [Compound 150] | 200 |  | 2 |
| CCc1cc2ccc(C(C)(C#N)Cc3cccc(C(=O)O)c3)cc2[nH]c1=O (stereo not drawn) [Compound 10] | 50.1 | > 260 |  |
| CCc1cc2ccc(C(C)(C#N)Cc3cccc(-c4nc(C)no4)c3)cc2[nH]c1=O (stereo not drawn) [Compound 11] | 79.4 | 152 |  |
| CCc1cc2ccc(C(C)(C#N)Cc3cccc(C(=O)OC)c3)cc2[nH]c1=O (stereo not drawn) [Compound 12] | 100 | 140 |  |
| CCc1cc2ccc(C(C)(C#N)Cc3cccc(C(=O)NC)c3)cc2[nH]c1=O (stereo not drawn) [Compound 13] | 63.1 | 182 |  |
| CCc1cc2ccc(C(C)(C#N)Cc3cccc(NS(C)(=O)=O)c3)cc2[nH]c1=O (stereo not drawn) [Compound 14] | 79.4 | 80 |  |
| CCc1cc2ccc(C(C)(C#N)Cc3cccc(NC(=O)N4CCOCC4)c3)cc2[nH]c1=O (stereo not drawn) [Compound 16] | 79.4 | 121 |  |
| CCc1cc2ccc(C(C)(C#N)Cc3cccc(OC)c3)cc2[nH]c1=O (stereo not drawn) [Compound 113] | 20 |  | 2 |
| CCc1cc2ccc(C(C)(C#N)CCOc3cccc(C)c3)cc2[nH]c1=O (stereo not drawn) [Compound 143] | 158 |  | 2 |
| CCc1cc2ccc(C(C)(C#N)CCOc3ccccc3C)cc2[nH]c1=O (stereo not drawn) [Compound 148] | 100 |  | 1 (a compound showing 0 to 50% inhibition at 20 μM is reported as score 1) |
| CCc1cc2ccc(C(C)(C#N)CCOc3ccc(C)cc3)cc2[nH]c1=O (stereo not drawn) [Compound 149] | 200 |  | 2 |
| CCc1cc2ccc(C(C)(C#N)CCOc3cccc(Cl)c3)cc2[nH]c1=O (stereo not drawn) [Compound 151] | 200 |  | 2 |
| CCc1cc2ccc(C(C)(C#N)CCOc3ccccc3Cl)cc2[nH]c1=O (stereo not drawn) [Compound 152] | 126 |  | 2 |
| CCc1cc2ccc(C(C)(C#N)CCOc3ccccc3Br)cc2[nH]c1=O (stereo not drawn) [Compound 153] | 79.4 |  | 2 |
| CCc1cc2ccc(C(C)(C#N)CCOc3ccc(C#N)cc3)cc2[nH]c1=O (stereo not drawn) [Compound 161] | 158 |  | 2 |
| CCc1cc2ccc(C(C)(C#N)CCOc3cccc4c3OCCO4)cc2[nH]c1=O (stereo not drawn) [Compound 163] | 200 |  | 2 |
| CCc1cc2ccc([C@](C)(C#N)C[C@@H]3CCc4cc(C)ccc4O3)cc2[nH]c1=O [Compound 251] | 316 | 192 |  |
| CCc1cc2ccc([C@@](C)(C#N)C[C@@H]3CCc4cc(C)ccc4O3)cc2[nH]c1=O [Compound 252] | 794 | 184 |  |

Now from value to compound, other results behind:

| IC50 (TANK-2 enzyme) [nM] | melting point [°C] | Structure (SMILES) | tubulin polymerisation score (tubulin) |
| --- | --- | --- | --- |
| 100 | 187 | CCc1cc2ccc(C(C)(C#N)Cc3cccc(N)c3)cc2[nH]c1=O (stereo not drawn) [Compound 15] |  |
| 50.1 |  | CCc1cc2ccc(C(C)(C#N)Cc3ccccc3F)cc2[nH]c1=O (stereo not drawn) [Compound 106] | 1 (a compound showing 0 to 50% inhibition at 20 μM is reported as score 1) |
| 79.4 |  | CCc1cc2ccc(C(C)(C#N)Cc3cccc(C(F)(F)F)c3)cc2[nH]c1=O (stereo not drawn) [Compound 109] | 2 |
| 25.1 |  | CCc1cc2ccc(C(C)(C#N)Cc3cccc(F)c3)cc2[nH]c1=O (stereo not drawn) [Compound 112] | 1 (a compound showing 0 to 50% inhibition at 20 μM is reported as score 1) |
| 31.6 |  | CCc1cc2ccc(C(C)(C#N)Cc3ccc(F)cc3)cc2[nH]c1=O (stereo not drawn) [Compound 115] | 2 |
| 25.1 |  | CCc1cc2ccc(C(C)(C#N)Cc3ccc(C)cc3)cc2[nH]c1=O (stereo not drawn) [Compound 117] | 2 |
| 100 |  | CCc1cc2ccc(C(C)(C#N)Cc3cc(F)cc(Cl)c3)cc2[nH]c1=O (stereo not drawn) [Compound 126] | 2 |
| 158 |  | CCc1cc2ccc(C(C)(C#N)Cc3cc(F)cc(F)c3)cc2[nH]c1=O (stereo not drawn) [Compound 128] | 1 (a compound showing 0 to 50% inhibition at 20 μM is reported as score 1) |
| 79.4 |  | CCc1cc2ccc(C(C)(C#N)Cc3cccc(Cl)c3F)cc2[nH]c1=O (stereo not drawn) [Compound 130] | 2 |
| 63.1 |  | CCc1cc2ccc(C(C)(C#N)Cc3ccc(F)cc3F)cc2[nH]c1=O (stereo not drawn) [Compound 137] | 1 (a compound showing 0 to 50% inhibition at 20 μM is reported as score 1) |
| 63.1 |  | CCc1cc2ccc(C(C)(C#N)Cc3c(F)cccc3F)cc2[nH]c1=O (stereo not drawn) [Compound 138] | 1 (a compound showing 0 to 50% inhibition at 20 μM is reported as score 1) |
